Experimental findings from patent US11028079B2 (ConverGene LLC, priority 2015, dated 2021) are described below.

Where only a bound is given, the exact number is not on record here.

This test concerns the target T1, BRD4 bromodomains (Homo sapiens, UniProt O60885).
T1 construct: fused on or other part: T7 phage capsid protein (phage-display fusion; the phage DNA is read out by qPCR)
Description: BROMOscan bromodomain competition binding assay (DiscoveRx). As to conditions: Kd from 11 compound concentrations ranging from 0 to 10 μM, read-out: BROMOscan Relative Activity. The gist of the method: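 Compounds in 0.1% DMSO/0.9% MEG competed with a solid-phase acetylated peptide for T7 phage-fused BRD4 bromodomains, with the retained bromodomain measured by qPCR.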

As to `Cc1noc(C)c1-c1ccc2nc(N3CCN(CCN(C)C)CC3)nc(NC(C)c3cccc(Cl)c3)c2c1` (stereo not shown) [Example 90, N-(1-(3-chlorophenyl)ethyl)-2-(4-(2-(dimethylamino)ethyl)piperazin-1-yl)-6-(3,5-dimethylisoxazol-4-yl)quinazolin-4-amine], the Kd is less than 500 nM.
With `Cc1noc(C)c1-c1ccc2nc(N3CCN(CCN(C)C)CC3)nc(NCc3ccc(Cl)s3)c2c1` [Example 94, N-((5-chlorothiophen-2-yl)methyl)-2-(4-(2-(dimethylamino)ethyl)piperazin-1-yl)-6-(3,5-dimethylisoxazol-4-yl)quinazolin-4-amine], the Kd is less than 500 nM.
Take `Cn1cc(-c2ccc3nc(N4CCN(CC(N)=O)CC4)nc(NCc4cncc(Cl)c4)c3c2)ccc1=O` [Example 127, 2-(4-(4-(((5-chloropyridin-3-yl)methyl)amino)-6-(1-methyl-6-oxo-1,6-dihydropyridin-3-yl)quinazolin-2-yl)piperazin-1-yl)acetamide]: the Kd was less than 500 nM.
Then `Cc1noc(C)c1-c1ccc2cc(N3CCN(CCN(C)C)CC3)nc(NCc3cccc(Cl)c3)c2c1` [Example 43, N-(3-chlorobenzyl)-3-(4-(2-(dimethylamino)ethyl)piperazin-1-yl)-7-(3,5-dimethylisoxazol-4-yl)isoquinolin-1-amine], with 500 to 5000 nM.
Regarding `Cc1noc(C)c1-c1ccc2nc(C(=O)NCc3ccnc(Cl)c3)nc(NCc3cccc(Cl)c3)c2c1` [Example 202, 4-((3-chlorobenzyl)amino)-N-((2-chloropyridin-4-yl)methyl)-6-(3,5-dimethylisoxazol-4-yl)quinazoline-2-carboxamide], the Kd was less than 500 nM.
As to `Cc1noc(C)c1-c1ccc2nc(C(=O)NCc3cc(Cl)ccn3)nc(NCc3cccc(Cl)c3)c2c1` [Example 188, 4-((3-chlorobenzyl)amino)-N-((4-chloropyridin-2-yl)methyl)-6-(3,5-dimethylisoxazol-4-yl)quinazoline-2-carboxamide], the Kd is less than 500 nM.
Consider `Cc1cc(CNC(=O)c2nc(NCc3cccc(Cl)c3)c3cc(-c4c(C)noc4C)ccc3n2)ccn1` [Example 249, 4-((3-chlorobenzyl)amino)-6-(3,5-dimethylisoxazol-4-yl)-N-((2-methylpyridin-4-yl)methyl)quinazoline-2-carboxamide], for which the Kd was less than 500 nM.
With `Cc1noc(C)c1-c1ccc2nc(N3CCS(=O)(=O)CC3)nc(NCc3cccc(Cl)c3)c2c1` [Example 243, 4-(4-((3-chlorobenzyl)amino)-6-(3,5-dimethylisoxazol-4-yl)quinazolin-2-yl)thiomorpholine 1,1-dioxide], the Kd lay within 500 to 5000 nM.
`Cc1noc(C)c1-c1ccc2nc(C(=O)NC3CCS(=O)(=O)CC3)nc(NC3(c4cccc(Cl)c4)CC3)c2c1` [Example 246, 4-((1-(3-chlorophenyl)cyclopropyl)amino)-6-(3,5-dimethylisoxazol-4-yl)-N-(1,1-dioxidotetrahydro-2H-thiopyran-4-yl)quinazoline-2-carboxamide]: the Kd is less than 500 nM.
The figure for `Cc1noc(C)c1-c1ccc2nc(-c3cnn(CCO)c3)nc(N3CCC(C(=O)O)CC3)c2c1` [Example 255, 1-(6-(3,5-dimethylisoxazol-4-yl)-2-(1-(2-hydroxyethyl)-1H-pyrazol-4-yl)quinazolin-4-yl)piperidine-4-carboxylic acid] is 500 to 5000 nM; for `CN(C)CCCN1CCN(c2nc(NCc3cncc(Cl)c3)c3cc(-c4ccc(=O)n(C)c4)ccc3n2)CC1` [Example 125, 5-(4-(((5-chloropyridin-3-yl)methyl)amino)-2-(4-(3-(dimethylamino)propyl)piperazin-1-yl)quinazolin-6-yl)-1-methylpyridin-2(1H)-one] it is less than 500 nM.
Consider `Cc1noc(C)c1-c1ccc2cc(N3CCN(CCO)CC3)nc(NCc3cccc(Cl)c3)c2c1` [Example 44, 2-(4-(1-((3-chlorobenzyl)amino)-7-(3,5-dimethylisoxazol-4-yl)isoquinolin-3-yl)piperazin-1-yl)ethanol], for which the Kd was 500 to 5000 nM.
For `Cc1noc(C)c1-c1ccc2c(NCc3cccc(Cl)c3)nc(N3CCN(CCO)CC3)nc2c1` [Example 40, 2-(4-(4-((3-chlorobenzyl)amino)-7-(3,5-dimethylisoxazol-4-yl)quinazolin-2-yl)piperazin-1-yl)ethanol], the Kd lay in the range of 500 to 5000 nM.
In the case of `Cc1noc(C)c1-c1ccc2nc(C(=O)Nc3cncc(F)c3)nc(NCc3cccc(Cl)c3)c2c1` [Example 221, 4-((3-chlorobenzyl)amino)-6-(3,5-dimethylisoxazol-4-yl)-N-(5-fluoropyridin-3-yl)quinazoline-2-carboxamide], the Kd was 500 to 5000 nM.
Take `CC(=O)N1CCN(c2nc(N3CCOC[C@@H]3c3ccccc3)c3cc(-c4c(C)noc4C)ccc3n2)CC1` [Example 294, (S)-1-(4-(6-(3,5-dimethylisoxazol-4-yl)-4-(3-phenylmorpholino)quinazolin-2-yl)piperazin-1-yl)ethan-1-one]: the Kd was less than 500 nM.
The figure for `Cc1noc(C)c1-c1ccc2nc(C(=O)NCc3ccnc(Cl)c3)nc(NCc3cncc(Cl)c3)c2c1` [Example 206, 4-(((5-chloropyridin-3-yl)methyl)amino)-N-((2-chloropyridin-4-yl)methyl)-6-(3,5-dimethylisoxazol-4-yl)quinazoline-2-carboxamide] is less than 500 nM; for `Cc1noc(C)c1-c1ccc2nc(-c3cnn(CCC#N)c3)nc(NCc3cccc(Cl)c3)c2c1` [Example 57, 3-(4-(4-((3-chlorobenzyl)amino)-6-(3,5-dimethylisoxazol-4-yl)quinazolin-2-yl)-1H-pyrazol-1-yl)propanenitrile] it is less than 500 nM; for `Cn1cc(-c2ccc3nc(N4CCN(CC(N)=O)CC4)nc(NCc4cccc(Cl)c4)c3c2)ccc1=O` [Example 108, 2-(4-(4-((3-chlorobenzyl)amino)-6-(1-methyl-6-oxo-1,6-dihydropyridin-3-yl)quinazolin-2-yl)piperazin-1-yl)acetamide] it is less than 500 nM.
Then `CN(C)CCN1CCN(c2nc(NCc3cccc(Cl)c3)c3cc(-c4ccc(=O)n(C)c4)ccc3n2)CC1` [Example 66, 5-(4-((3-chlorobenzyl)amino)-2-(4-(2-(dimethylamino)ethyl)piperazin-1-yl)quinazolin-6-yl)-1-methylpyridin-2(1H)-one], with less than 500 nM; and `CN(C)CCN1CCN(c2nc(NCc3cccc(Cl)c3)c3cc(-c4cn[nH]c4)ccc3n2)CC1` [Example 64, N-(3-chlorobenzyl)-2-(4-(2-(dimethylamino)ethyl)piperazin-1-yl)-6-(1H-pyrazol-4-yl)quinazolin-4-amine], with greater than 5000 nM; and `Cc1noc(C)c1-c1ccc2nc(C(=O)N3CCc4[nH]ncc4C3)nc(NC3(c4cccc(Cl)c4)CC3)c2c1` [Example 286, (4-((1-(3-chlorophenyl)cyclopropyl)amino)-6-(3,5-dimethylisoxazol-4-yl)quinazolin-2-yl)(1,4,6,7-tetrahydro-5H-pyrazolo[4,3-c]pyridin-5-yl)methanone], with less than 500 nM.
For the molecule `Cc1noc(C)c1-c1ccc2nc(N3CCN(S(C)(=O)=O)CC3)nc(NCc3cncc(Cl)c3)c2c1` [Example 152, N-((5-chloropyridin-3-yl)methyl)-6-(3,5-dimethylisoxazol-4-yl)-2-(4-(methylsulfonyl)piperazin-1-yl)quinazolin-4-amine], the Kd was less than 500 nM.
As to `Cc1noc(C)c1-c1ccc2nc(C(=O)N[C@H]3CC[C@H](O)CC3)nc(N3CCOC[C@@H]3c3ccccc3)c2c1` [Example 273, 6-(3,5-dimethylisoxazol-4-yl)-N-((trans)-4-hydroxycyclohexyl)-4-((S)-3-phenylmorpholino)quinazoline-2-carboxamide], the Kd is less than 500 nM.
Take `Cc1noc(C)c1-c1ccc2nc(C(=O)NC3CN(C)C3)nc(NCc3cccc(Cl)c3)c2c1` [Example 198, 4-((3-chlorobenzyl)amino)-6-(3,5-dimethylisoxazol-4-yl)-N-(1-methylazetidin-3-yl)quinazoline-2-carboxamide]: the Kd was less than 500 nM.
As for `Cn1cc(-c2ccc3ncnc(Nc4ccc(Cl)cc4)c3c2)ccc1=O` [Example 159, 5-(4-((4-chlorophenyl)amino)quinazolin-6-yl)-1-methylpyridin-2(1H)-one], the Kd was greater than 5000 nM.
The figure for `Cc1noc(C)c1-c1ccc2ncnc(NCc3cccc(Cl)c3)c2c1` [Example 2, N-(3-chlorobenzyl)-6-(3,5-dimethylisoxazol-4-yl)quinazolin-4-amine] is less than 500 nM.
For `Cc1noc(C)c1-c1ccc2nccc(NCc3cccc(Cl)c3)c2c1` [Example 3, N-(3-chlorobenzyl)-6-(3,5-dimethylisoxazol-4-yl)quinolin-4-amine], the Kd was in the range of 500 to 5000 nM.
Take `Cn1cc(-c2ccc3nc(Cl)nc(NCc4cccc(Cl)c4)c3c2)ccc1=O` [Example 100, 5-(2-chloro-4-((3-chlorobenzyl)amino)quinazolin-6-yl)-1-methylpyridin-2(1H)-one]: the Kd is greater than 5000 nM.
For `Cc1noc(C)c1-c1ccc2nc(C(=O)NCC3CN(C)C3)nc(NC3(c4cccc(Cl)c4)CC3)c2c1` [Example 240, 4-((1-(3-chlorophenyl)cyclopropyl)amino)-6-(3,5-dimethylisoxazol-4-yl)-N-((1-methylazetidin-3-yl)methyl)quinazoline-2-carboxamide], the Kd is less than 500 nM.
As to `Cc1noc(C)c1-c1ccc2nc(-n3cc(CCO)cn3)nc(NCc3cccc(Cl)c3)c2c1` [Example 42, 2-(1-(4-((3-chlorobenzyl)amino)-6-(3,5-dimethylisoxazol-4-yl)quinazolin-2-yl)-1H-pyrazol-4-yl)ethanol], the Kd was less than 500 nM.
As for `Cc1noc(C)c1-c1ccc2nc(C(=O)NCc3cncn3C)nc(NCc3cccc(Cl)c3)c2c1` [Example 183, 4-((3-chlorobenzyl)amino)-6-(3,5-dimethylisoxazol-4-yl)-N-((1-methyl-1H-imidazol-5-yl)methyl)quinazoline-2-carboxamide], the Kd is less than 500 nM.
